From patent publication US9737510B2, “Indazole compounds and a process for the preparation thereof” (Council of Scientific & Industrial Research, priority 2013, dated 2017)

Tests used:
Human Islets = assay: GSIS enhancement in human islets; assay type: cell-based; details: low and high glucose
Method: (§1) NDS100179 induced insulin measurements at low and high glucose condition were carried out in Human Islets, Mice and MIN6 cells.

MIN6 cells = assay: Insulinotropic activity: insulin secretion from MIN6 cells (ELISA based assay); assay type: cell-based, mouse; details: for Insulin Secretion: standard error in bracket
Method: Insulinotropic activity of the NDS100178 and NDS100179 was measured by a well-optimized ELISA based Assay (Shantani Protocol #5205) described below.
Materials • MIN6Cell (source: National Center for Cell Sciences, Pune) • Mouse Insulin ELISA kit (Mercodia, 10-1247-01) • Plate Shaker (MixMatefromEppendorf) • HEPES Balanced Krebs-Ringer bicarbonate buffer (components as follows)
Method • i. Seed proliferating culture of MIN-6 cells into a 6 well plate with almost half the confluency two days before the experiment. • ii. One the day of Insulin induction experiment, the cells should become almost confluent and are in good condition. • iii. On the day of experiment, first prepare 1×KRB-HEPES buffer with 0.1% BSA (for rinse) and without BSA (for equilibration and insulin induction) as described in the materials. • iv. Prepare equilibration buffer: 1×KRB-HEPES buffer without BSA containing 3.3 mM glucose (to bring down the glucose level of all cells to the same level). For example, add 66 ul 1 M glucose stock solution to 20 ml KRB-HEPES buffer without BSA. • v. Prepare the stimulating buffer (insulin induction): 1×KRB-HEPES buffer without BSA containing the defined glucose level (in most cases, it will be 16.7 mM glucose) and the desired concentration of molecule. • vi. Pre warm all the buffers to 37° C. in the water bath (at 15 minutes). • vii. Remove media from all wells, rinse each well twice with 2 ml KRB-HEPES buffer containing 0.1% BSA. • viii. Add 2 ml of equilibration buffer in each well and incubate at 37° C. for half an hour. • ix. After the incubation add 2 ml of stimulating buffer in respective wells (properly labelled) and incubate 37° C. for 1 hour. • x. In the meanwhile, turn on the refrigerated centrifuge and set the temperature to 4° C. Take out enzyme conjugate, diluent buffer, Calibrator 0 and stripes needed (for example, two stripes for 8 samples to be run in duplicate) from Mercodia ELISA kit box (store at 4° C.) and warm up them to RT. • xi. […] Centrifuge the tubes at 600 g for 5 min. • xiii. Take out 500 ul in fresh properly labelled precooled tubes. • xiv. Now dilute the samples 1:30 in calibrator 0 i.e. add 3 ul of each sample to 87 ul of Calibrator 0 in 8 different properly labelled 0.5 ml tubes. Mix them well. • xv. Prepare 1× enzyme conjugate buffer, i.e. mix 180 ul enzyme (11×) with 1800 ul diluent buffer for ELISA of two stripes. • xvi. Add 10 ul of each sample (diluted, in duplicate) in the two adjacent wells. Be careful not to touch the bottom. • xvii. Carefully add 100 ul of Enzyme Conjugate buffer (1×) to each well and incubate on a plate shaker (eppendorf MixMate) at 800 rpm for 2 hours at 25° C. • xviii. 45 min before the incubation is over take out wash buffer, substrate TMB and Stop solution. Keep them at RT. • xix. 5 min before the incubation is over prepare 1× wash buffer (21×), i.e. 40 ml distilled water+2 ml (21×) wash buffer in a reservoir. • xx. After the incubation is over, wash each well 7 times with 350 ul wash buffer. Use a multichannel (175 ul). • xxi. After the washing add 200 uL substrate TMB solution in each well. Maintain a proper pace. • xxii. Allow to incubate for 15 min. Set the program on the plate reader, to take absorbance read at 450 nm. Add a 5 sec shake step to allow proper mixing. • xxiii. After incubation immediately add 50 ul Stop solution in each well at same pace and take absorbance read at 450 nm.
Assay conditions were kept same in all the assays. The difference in absorption-value for control experiment (no treatment with molecule) over different days is attributed to cell culture conditions. Other varying conditions are specified in the respective graphs.
[Note: If not mentioned specifically, HG=High Glucose (16.7 mM), LG=Low Glucose (3.3 mM)]

C57BL/6J mice [1] = assay: Oral glucose tolerance test, glucose reduction in non-diabetic C57BL/6J mice; assay type: in vivo; details: fasted male C57BL/6J mice, oral dose with 3 g/kg glucose, 0-120 minutes
Method: 12-13 weeks male C57BL/6J mice were fasted overnight. In the morning animals were orally dosed with different concentrations of NDS100179 or control vehicle along with 3 g/kg of glucose. Blood glucose was measured just before the dose and then 30, 60 90 and 120 minutes after the compound dose.

Kinetic solubility = assay type: physicochemical
Metabolic study in HLM = assay type: in vitro ADME
HepG2 cells = assay: Glucose uptake (2-NBDG) in insulin resistant HepG2 cells; assay type: cell-based; details: 24 hours with drug, 2-NBDG 15 min
Method: The assay was performed after making the HepG2 cells insulin resistant by culturing them in high glucose condition with respective drugs for 24 hours. The assay was performed after 24 hours by allowing the cells to starve for 2 hrs in serum free media (containing respective drug) followed by 30 min incubation in KRB buffer (with respective drugs) and lastly incubating with 2-NBDG (fluorescent glucose analgoue) for 15 min. The cells were thoroughly washed and lysed with 1% triton-X. The fluorescence reading was immediately taken at Ex:465 and […].

C57BL/6J mice [2] = assay: Insulin increase / GSIS in C57BL/6J mice; assay type: in vivo
Method: Insulin at 0 and 15 minutes time points was also measured in the studies conducted above where 12-13 weeks male C57BL/6J mice were fasted overnight and in the morning orally dosed with different concentrations of NDS100179 or control vehicle along with 3 g/kg of glucose.
as §1

Pharmacokinetics in mice = assay type: in vivo
Source text: Based on the pharmacokinetics studies performed in Mice NDS100179 is 100% orally bioavailable compound (FIG. 9).

CYP3A4 = CYP3A4 (Homo sapiens, UniProt P08684); assay: CYP3A4 inhibition; assay type: in vitro ADME
[3] = Metabolic study and intrinsic clearance in MLM; assay type: in vitro ADME
db/db mice = assay: 30 day oral treatment of db/db mice (fasted glucose, OGTT, beta-cell function, triglyceride, body weight); assay type: in vivo
Method: db/db or leptin null mice are well accepted model of diabetes. 7 week old db/db mice were dosed orally with 10 mg/kg, 30 mg/kg of NDS100179 and vehicle alone for 30 days. Fasted plasma glucose levels in the animals were measured before the start of the study, at day 15 and day 30.
7 week db/db mice were dosed orally with 10 mg/kg, 30 mg/kg of NDS100179 and vehicle alone for 30 days. Beta-cell functionality was assessed using HOMA-beta % calculations at the end of 30 days.
7 week db/db mice were dosed orally with 10 mg/kg, 30 mg/kg of NDS100179 and vehicle alone for 30 days. Triglyceride levels were measured at the end of 30 days.
7 week db/db mice were dosed orally with 10 mg/kg, 30 mg/kg of NDS100179 and vehicle alone for 30 days. Animal body weight was measured every third day.

[4] = oral 10 mg/kg, 30 mg/kg, end of 30 days

Chain of CYP3A4 (P08684 whole entry): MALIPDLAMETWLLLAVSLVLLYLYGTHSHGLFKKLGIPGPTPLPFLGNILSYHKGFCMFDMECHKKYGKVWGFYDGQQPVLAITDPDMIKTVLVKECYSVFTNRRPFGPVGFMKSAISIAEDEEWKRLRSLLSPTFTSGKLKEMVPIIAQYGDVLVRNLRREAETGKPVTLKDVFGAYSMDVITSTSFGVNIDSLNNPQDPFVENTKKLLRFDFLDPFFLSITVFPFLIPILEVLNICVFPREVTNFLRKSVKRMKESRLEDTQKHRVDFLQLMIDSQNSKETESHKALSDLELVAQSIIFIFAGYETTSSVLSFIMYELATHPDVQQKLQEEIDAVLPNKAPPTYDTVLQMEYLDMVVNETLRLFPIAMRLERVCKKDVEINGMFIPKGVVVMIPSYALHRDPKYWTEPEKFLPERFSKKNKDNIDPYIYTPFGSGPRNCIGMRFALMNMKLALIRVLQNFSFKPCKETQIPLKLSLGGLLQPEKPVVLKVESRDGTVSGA

5-Chloro-3-(4,5-dihydro-1H-imidazol-2-yl)-1-methyl-3a,7a-dihydro-1H-indazole [NDS100179]
GSIS enhancement (Human Islets): enhance insulin secretion only at high glucose concentration | insulin secretion from MIN6 cells in high glucose conditions (MIN6 cells; 33 uM, 1 hour, high glucose (16.7 mM), three different days): significant increase in the insulin secretion | insulin secretion over control (MIN6 cells; MIN6 cells, 10 nM): not found to be statistically significant | insulin secretion over control (MIN6 cells; MIN6 cells, 50 nM): active insulinotrope | insulin secretion over control (MIN6 cells; MIN6 cells, 100 nM): active insulinotrope | Insulin Secretion (MIN6 cells; MIN6 cells, compound 0.1 μM): 5.55 (1.0) ng/ml | Insulin Secretion (MIN6 cells; MIN6 cells, compound 1.0 μM): 10.27 (0.6) ng/ml | Insulin Secretion (MIN6 cells; MIN6 cells, compound 10.0 μM): 15.45 (1.2) ng/ml | glucose dependence of insulinotropic activity (MIN6 cells; MIN6 cells, high glucose vs lower glucose conditions): glucose dependent | GSIS enhancement (MIN6 cells; MIN6 cells, low and high glucose): enhance insulin secretion only at high glucose concentration | blood glucose (oral glucose tolerance test) (C57BL/6J mice [1]): dose dependently reduce the blood glucose | solubility kinetic (Kinetic solubility): 205.27 µM | Metabolic Study HLM Mean % PCR* (Metabolic study in HLM): 80.11% | glucose uptake in HepG2 cells (HepG2 cells): increase glucose uptake | GSIS enhancement (C57BL/6J mice [2]; Mice, low and high glucose): enhance insulin secretion only at high glucose concentration | insulin secretion in mice (C57BL/6J mice [2]; fasted male C57BL/6J mice, oral dose with 3 g/kg glucose, 0 and 15 minutes): blood plasma concentration glucose dependent | AUC(0-t) (Pharmacokinetics in mice): 837.113 ng·h/mL | AUC(inf) (Pharmacokinetics in mice): 854.231 ng·h/mL | AUC(inf)/AUC(0-t) % (Pharmacokinetics in mice): 102.049% | Cmax (Pharmacokinetics in mice): 631.1 ng/mL | Tmax (Pharmacokinetics in mice): 15 min | oral bioavailability (Pharmacokinetics in mice): 100% | t½ (Pharmacokinetics in mice): 102 min | CYP3A4 Inhibition (CYP3A4): No inhibition | Intrinsic Clearnace MLM [3]: 63.7 μl/min/mg of protein | Metabolic Study MLM Mean % PCR* [3]: 39.25% | glucose tolerance (OGTT) (db/db mice; at the end of 30 days of oral treatment): significant improvement in glucose tolerance | fasted plasma glucose (basal glucose level) (db/db mice; oral 10 mg/kg and 30 mg/kg for 30 days, day 0, 15, 30): significant control in rise of basal glucose level | body weight (db/db mice; oral 10 mg/kg, 30 mg/kg for 30 days, measured every third day): No significant change in body weight | beta-cell function (HOMA-beta %) (db/db mice; [4]): significant improvements in beta-cell functions | triglyceride levels (db/db mice; [4]): significant reduction in triglyceride levels | rise in fasted blood glucose levels (db/db mice; oral 30 mg/kg for 30 days): no statistically significant rise
